Laboratory results from patent US10829473B2, “Modulators of the cystic fibrosis transmembrane conductance regulator protein and methods of use” (AbbVie Overseas S.Á.R.L., priority 2017, dated 2020).
pEC50: −log10 of the molar value. Where two headings read alike, the source gives them in different places. Marks after values point to notes of the source that are not given here.

Biological target: T1, F508delCFTR (Homo sapiens, UniProt P13569, DEL508-508)
T1 construct: expressed in transfected cells; host or cells: CFBE41o- human lung derived epithelial cells (CFBE41o-F508delCFTR-HRP), doxycycline-inducible
Assay: Cell Surface Expression-Horse Radish Peroxidase (CSE-HRP) Assay;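 as to EC50 (with co-corrector): co-corrector chromenyl benzoic acid corrector at 2 or 3 µM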;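 as to Maximum % activity (without co-corrector): % of on-plate positive control chromenyl benzoic acid corrector at 2 or 3 µM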
Format: cell-based
Settings: for Maximum % activity (with co-corrector) / Emax: maximum at any tested concentration; for Emax: read-out: Maximum % activity (without co-corrector)
In short: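 Corrector compounds were given as 8-point 3-fold series from 20 or 30 μM, with or without a 2 μM co-corrector, for 18-24 h at 33 °C. Surface HRP was read by luminol luminescence as % of positive control; variable-Hill-slope sigmoidal fitting gave EC50 from triplicate plates.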

[1] = test compound alone, without co-corrector, read-out: EC50 (without co-corrector)
[2] = with co-corrector, read-out: EC50 (with co-corrector)
[3] = test compound with co-corrector
[4] = test compound with co-corrector, read-out: EC50 (with co-corrector)
[5] = test compound without co-corrector
[6] = test compound without co-corrector, read-out: EC50 (without co-corrector)

T1 sequence (P13569 with tags, fused parts or gaps DEL508-508): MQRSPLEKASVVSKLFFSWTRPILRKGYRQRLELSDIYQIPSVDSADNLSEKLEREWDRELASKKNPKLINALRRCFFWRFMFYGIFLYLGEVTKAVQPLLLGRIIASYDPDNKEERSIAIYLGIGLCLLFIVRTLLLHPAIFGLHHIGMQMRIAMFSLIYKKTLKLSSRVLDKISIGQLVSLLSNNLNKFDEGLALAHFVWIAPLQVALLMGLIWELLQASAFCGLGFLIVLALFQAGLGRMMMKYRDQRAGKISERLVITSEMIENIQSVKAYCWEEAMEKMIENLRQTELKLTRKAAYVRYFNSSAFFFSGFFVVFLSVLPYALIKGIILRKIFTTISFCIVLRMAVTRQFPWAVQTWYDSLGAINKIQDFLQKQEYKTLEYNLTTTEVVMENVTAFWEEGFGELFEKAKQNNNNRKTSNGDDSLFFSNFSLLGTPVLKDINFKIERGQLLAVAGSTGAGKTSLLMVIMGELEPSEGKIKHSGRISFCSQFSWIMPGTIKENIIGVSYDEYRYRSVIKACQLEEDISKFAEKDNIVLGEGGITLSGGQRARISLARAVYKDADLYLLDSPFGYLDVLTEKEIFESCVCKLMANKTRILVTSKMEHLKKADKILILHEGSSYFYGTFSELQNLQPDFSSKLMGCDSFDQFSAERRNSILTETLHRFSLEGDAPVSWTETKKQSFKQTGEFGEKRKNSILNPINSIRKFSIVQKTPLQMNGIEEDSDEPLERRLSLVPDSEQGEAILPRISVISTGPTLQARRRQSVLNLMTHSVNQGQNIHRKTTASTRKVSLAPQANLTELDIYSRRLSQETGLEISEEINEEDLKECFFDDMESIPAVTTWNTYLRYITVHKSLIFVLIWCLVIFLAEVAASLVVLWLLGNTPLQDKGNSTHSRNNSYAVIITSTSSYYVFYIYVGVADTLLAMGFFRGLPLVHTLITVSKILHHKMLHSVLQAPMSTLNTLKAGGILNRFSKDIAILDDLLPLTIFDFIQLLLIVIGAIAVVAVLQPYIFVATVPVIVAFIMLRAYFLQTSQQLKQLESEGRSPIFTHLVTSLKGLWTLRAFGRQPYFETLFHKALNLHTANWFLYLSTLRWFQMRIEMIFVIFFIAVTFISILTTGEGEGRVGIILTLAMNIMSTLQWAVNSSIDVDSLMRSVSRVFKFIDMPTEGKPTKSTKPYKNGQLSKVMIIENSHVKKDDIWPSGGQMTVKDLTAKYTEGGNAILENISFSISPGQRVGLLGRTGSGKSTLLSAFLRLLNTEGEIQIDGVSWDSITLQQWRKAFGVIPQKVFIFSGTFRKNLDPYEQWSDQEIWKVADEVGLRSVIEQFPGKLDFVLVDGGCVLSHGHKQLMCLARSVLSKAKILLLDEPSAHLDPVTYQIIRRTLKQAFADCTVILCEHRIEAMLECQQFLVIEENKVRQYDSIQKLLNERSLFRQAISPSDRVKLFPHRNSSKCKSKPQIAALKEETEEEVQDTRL

With `CCCc1nc(C(F)(F)F)ccc1C1(C(=O)NS(=O)(=O)c2cccc3c2CCCN3)CC1` [Example GI-8, 1-[2-propyl-6-(trifluoromethyl)pyridin-3-yl]-N-(1,2,3,4-tetrahydroquinoline-5-sulfonyl)cyclopropane-1-carboxamide] the pEC50 [1] was > 5.52, the “Maximum % activity (with co-corrector)” value (with co-corrector) was “+++ (≥350)” and the pEC50 [2] was > 5.52. The Emax (without co-corrector) was > 150%.
`O=C(NS(=O)(=O)c1cccc2c1CCCN2)C1(c2cc(OC(F)(F)F)ccc2Cl)CC1` [II-25] was tested, and the pEC50 [1] was 5.00 to 5.52, the “Maximum % activity (with co-corrector)” value (with co-corrector) was “+++ (≥350)” and the pEC50 [2] was > 5.52. The Emax (without co-corrector) was > 150%.
In the case of `CCc1cnc(OCCOC)c(C2(C(=O)NS(=O)(=O)c3cccc4[nH]ccc34)CC2)c1` [Example GI-109, 1-[5-ethyl-2-(2-methoxyethoxy)pyridin-3-yl]-N-(1H-indole-4-sulfonyl)cyclopropane-1-carboxamide], the “Maximum % activity (with co-corrector)” value [3] was “+++ (≥350)”, the pEC50 [4] was > 5.52 and the Emax [5] was > 150%. It also gave a pEC50 [6] of 5.00 to 5.52.
With `CCc1cnc(N2CCOCC2)c(C2(C(=O)NS(=O)(=O)c3cccc4nc(C)ccc34)CC2)c1` [GII-32, 1-[5-ethyl-2-(morpholin-4-yl)pyridin-3-yl]-N-(2-methylquinoline-5-sulfonyl)cyclopropane-1-carboxamide] the “EC50 (with co-corrector)” value [3] was “++^a”, the “Maximum % activity (with co-corrector)” value [3] was “++ (≥150 and <350)” and the “EC50 (without co-corrector)” value [5] was “++^a”. It also gave an Emax [5] of 50 to 150%.
`COc1ccc(C)cc1C1(C(=O)NS(=O)(=O)c2cccc3nc(N)ccc23)CC1` [Example I-79, N-(2-aminoquinoline-5-sulfonyl)-1-(2-methoxy-5-methylphenyl)cyclopropane-1-carboxamide] was tested, and the pEC50 [1] was > 5.52, the “Maximum % activity (with co-corrector)” value (with co-corrector) was “+++ (≥350)” and the pEC50 [2] was > 5.52. For the same molecule, the Emax (without co-corrector) was > 150%.
With `CCc1cnc(OCC(C)C)c(C2(C(=O)NS(=O)(=O)c3cccc4nc(C)ccc34)CC2)c1` [Example GI-46, 1-[5-ethyl-2-(2-methylpropoxy)pyridin-3-yl]-N-(2-methylquinoline-5-sulfonyl)cyclopropane-1-carboxamide] the “Maximum % activity (with co-corrector)” value [3] was “+++ (≥350)”, the pEC50 [4] was > 5.52 and the Emax [5] was > 150%. For the same molecule, the pEC50 [6] was > 5.52.
For `COc1cccc(OCC2CC2)c1C1(C(=O)NS(=O)(=O)c2cccc3ncccc23)CC1` [Example I-46, 1-[2-(cyclopropylmethoxy)-6-methoxyphenyl]-N-(quinoline-5-sulfonyl)cyclopropane-1-carboxamide], the pEC50 [1] was > 5.52, the “Maximum % activity (with co-corrector)” value (with co-corrector) was “+++ (≥350)” and the pEC50 [2] was > 5.52. The Emax (without co-corrector) was > 150%.
`CCOc1ccc(C)cc1C1(C(=O)NS(=O)(=O)c2cccc3[nH]c(C)cc23)CC1` [Example I-91, 1-(2-ethoxy-5-methylphenyl)-N-(2-methyl-1H-indole-4-sulfonyl)cyclopropane-1-carboxamide] was tested, and the pEC50 [1] was > 5.52, the “Maximum % activity (with co-corrector)” value (with co-corrector) was “+++ (≥350)” and the pEC50 [2] was > 5.52. The Emax (without co-corrector) was > 150%.
`COc1ncc(C(F)(F)F)cc1C1(C(=O)NS(=O)(=O)c2cccc3ncc(C)n23)CC1` [II-19] was tested, and the pEC50 [1] was 5.00 to 5.52, the “Maximum % activity (with co-corrector)” value (with co-corrector) was “+++ (≥350)” and the pEC50 [2] was 5.00 to 5.52. The Emax (without co-corrector) was 50 to 150%.
For `O=C(NS(=O)(=O)c1ccccc1)C1(c2ccccc2F)CC1` [Example III-30, N-(benzenesulfonyl)-1-(2-fluorophenyl)cyclopropane-1-carboxamide], the pEC50 [1] was < 5.00, the “Maximum % activity (with co-corrector)” value (with co-corrector) was “++ (≥150 and <350)” and the pEC50 [2] was 5.00 to 5.52. For the same molecule, the Emax (without co-corrector) was < 50%.
In the case of `Cc1ccc(O[C@@H]2CCOC2)c(C2(C(=O)NS(=O)(=O)c3cccc4nc(C)ccc34)CC2)c1` [Example I-123, 1-(5-methyl-2-{[(3R)-oxolan-3-yl]oxy}phenyl)-N-(2-methylquinoline-5-sulfonyl)cyclopropane-1-carboxamide], the pEC50 [1] was > 5.52, the “Maximum % activity (with co-corrector)” value (with co-corrector) was “+++ (≥350)” and the pEC50 [2] was > 5.52. The Emax (without co-corrector) was > 150%.
In the case of `COc1ncc(C2CCC2)cc1C1(C(=O)NS(=O)(=O)c2cccc3ncc(C)n23)CC1` [II-16], the pEC50 [1] was 5.00 to 5.52, the “Maximum % activity (with co-corrector)” value (with co-corrector) was “+++ (≥350)” and the pEC50 [2] was > 5.52. For the same molecule, the Emax (without co-corrector) was > 150%.
In the case of `CCc1ccncc1C1(C(=O)NS(=O)(=O)c2cccc3c2CCCN3)CC1` [GII-21, 1-(4-ethylpyridin-3-yl)-N-(1,2,3,4-tetrahydroquinoline-5-sulfonyl)cyclopropane-1-carboxamide], the “Maximum % activity (with co-corrector)” value [3] was “++ (≥150 and <350)”, the pEC50 [4] was 5.00 to 5.52 and the Emax [5] was < 50%. For the same molecule, the pEC50 [6] was < 5.00.
With `CC(C)Oc1cnc(C2CCC2)cc1C1(C(=O)NS(=O)(=O)c2cccc3ncccc23)CC1` [Example GI-25, 1-{2-cyclobutyl-5-[(propan-2-yl)oxy]pyridin-4-yl}-N-(quinoline-5-sulfonyl)cyclopropane-1-carboxamide] the pEC50 [1] was 5.00 to 5.52, the “Maximum % activity (with co-corrector)” value (with co-corrector) was “+++ (≥350)” and the pEC50 [2] was > 5.52. The Emax (without co-corrector) was > 150%.
For `CCOc1ccc(C(C)(C)OC)cc1C1(C(=O)NS(=O)(=O)c2cccc3ncccc23)CC1` [II-97], the pEC50 [1] was > 5.52, the “Maximum % activity (with co-corrector)” value (with co-corrector) was “+++ (≥350)” and the pEC50 [2] was > 5.52. For the same molecule, the Emax (without co-corrector) was > 150%.
`O=C(NS(=O)(=O)c1cccc2ncccc12)C1(c2cc(C3CC3)cnc2N2CCCC2)CC1` [Example GI-32, 1-[5-cyclopropyl-2-(pyrrolidin-1-yl)pyridin-3-yl]-N-(quinoline-5-sulfonyl)cyclopropane-1-carboxamide] was tested, and the “Maximum % activity (with co-corrector)” value [3] was “+++ (≥350)”, the pEC50 [4] was > 5.52 and the Emax [5] was > 150%. For the same molecule, the pEC50 [6] was 5.00 to 5.52.
For `COc1ccc(C)nc1C1(C(=O)NS(=O)(=O)c2cccc3ncccc23)CC1` [Example III-124, 1-(3-methoxy-6-methylpyridin-2-yl)-N-(quinoline-5-sulfonyl)cyclopropane-1-carboxamide], the pEC50 [1] was 5.00 to 5.52, the “Maximum % activity (with co-corrector)” value (with co-corrector) was “+++ (≥350)” and the pEC50 [2] was 5.00 to 5.52. The Emax (without co-corrector) was 50 to 150%.
For `COc1cc(C2(C(=O)NS(=O)(=O)c3cccc4nc(N)ccc34)CC2)c(OCC(C)C)cn1` [Example I-92, N-(2-aminoquinoline-5-sulfonyl)-1-[2-methoxy-5-(2-methylpropoxy)pyridin-4-yl]cyclopropane-1-carboxamide], the pEC50 [1] was > 5.52, the “Maximum % activity (with co-corrector)” value (with co-corrector) was “+++ (≥350)” and the pEC50 [2] was > 5.52. The Emax (without co-corrector) was > 150%.
In the case of `COc1ccccc1C1(C(=O)NS(=O)(=O)c2ccccc2C)CC1` [Example III-85, 1-(2-methoxyphenyl)-N-(2-methylbenzene-1-sulfonyl)cyclopropane-1-carboxamide], the pEC50 [1] was 5.00 to 5.52, the “Maximum % activity (with co-corrector)” value (with co-corrector) was “+++ (≥350)” and the pEC50 [2] was 5.00 to 5.52. It also gave an Emax (without co-corrector) of 50 to 150%.
For `COc1ccc(C)nc1C1(C(=O)NS(=O)(=O)c2cccc3nc(C)ccc23)CC1` [Example III-126, 1-(3-methoxy-6-methylpyridin-2-yl)-N-(2-methylquinoline-5-sulfonyl)cyclopropane-1-carboxamide], the pEC50 [1] was > 5.52, the “Maximum % activity (with co-corrector)” value (with co-corrector) was “++ (≥150 and <350)” and the pEC50 [2] was > 5.52. For the same molecule, the Emax (without co-corrector) was 50 to 150%.
For `O=C(NS(=O)(=O)c1ccccc1)C1(c2ccc(Cl)cc2)CCC1` [Example III-7, N-(benzenesulfonyl)-1-(4-chlorophenyl)cyclobutane-1-carboxamide], the pEC50 [1] was < 5.00, the “Maximum % activity (with co-corrector)” value (with co-corrector) was “++ (≥150 and <350)” and the pEC50 [2] was 5.00 to 5.52. For the same molecule, the Emax (without co-corrector) was < 50%.
With `COc1ccc(C2CCC2)cc1C1(C(=O)NS(=O)(=O)c2cccc3[nH]ccc23)CC1` [Example I-55, 1-(5-cyclobutyl-2-methoxyphenyl)-N-(1H-indole-4-sulfonyl)cyclopropane-1-carboxamide] the pEC50 [1] was > 5.52, the “Maximum % activity (with co-corrector)” value (with co-corrector) was “+++ (≥350)” and the pEC50 [2] was > 5.52. The Emax (without co-corrector) was > 150%.
In the case of `COc1ncc(C)cc1C1(C(=O)NS(=O)(=O)c2cccc3c2CCCN3)CC1` [II-10], the pEC50 [1] was 5.00 to 5.52, the “Maximum % activity (with co-corrector)” value (with co-corrector) was “+++ (≥350)” and the pEC50 [2] was 5.00 to 5.52. For the same molecule, the Emax (without co-corrector) was > 150%.
In the case of `CC(C)COc1ncc(N2CCCC2)cc1C1(C(=O)NS(=O)(=O)c2cccc3ncccc23)CC1` [Example GI-68, 1-[2-(2-methylpropoxy)-5-(pyrrolidin-1-yl)pyridin-3-yl]-N-(quinoline-5-sulfonyl)cyclopropane-1-carboxamide], the “Maximum % activity (with co-corrector)” value [3] was “+++ (≥350)”, the pEC50 [4] was > 5.52 and the Emax [5] was > 150%. The pEC50 [6] was > 5.52.
In the case of `O=C(NS(=O)(=O)c1ccc(-n2cccn2)cc1)C1(c2cccc(Cl)c2)CC1` [Example III-73, 1-(3-chlorophenyl)-N-[4-(1H-pyrazol-1-yl)benzene-1-sulfonyl]cyclopropane-1-carboxamide], the pEC50 [1] was < 5.00, the “Maximum % activity (with co-corrector)” value (with co-corrector) was “+ (<150)” and the pEC50 [2] was < 5.00. The Emax (without co-corrector) was < 50%.
`COCC1CCN(c2ncc(C3CCC3)cc2C2(C(=O)NS(=O)(=O)c3cccc4ncccc34)CC2)CC1` [Example GI-121, 1-{5-cyclobutyl-2-[4-(methoxymethyl)piperidin-1-yl]pyridin-3-yl}-N-(quinoline-5-sulfonyl)cyclopropane-1-carboxamide] was tested, and the “Maximum % activity (with co-corrector)” value [3] was “+++ (≥350)”, the pEC50 [4] was > 5.52 and the Emax [5] was > 150%. For the same molecule, the pEC50 [6] was > 5.52.
`CC(C)c1nc(C(F)(F)F)ccc1C1(C(=O)NS(=O)(=O)c2cccc3c2CCCN3)CC1` [Example GI-9, 1-[2-(propan-2-yl)-6-(trifluoromethyl)pyridin-3-yl]-N-(1,2,3,4-tetrahydroquinoline-5-sulfonyl)cyclopropane-1-carboxamide] was tested, and the pEC50 [1] was > 5.52, the “Maximum % activity (with co-corrector)” value (with co-corrector) was “+++ (≥350)” and the pEC50 [2] was > 5.52. For the same molecule, the Emax (without co-corrector) was > 150%.
